Read-outs that look alike come from different tables or passages of the source.
What was measured:
[1] = target: GSK3α (GST-full length GSK3α) (Homo sapiens (Human), UniProt P49840); test: GSK3α TR-FRET kinase assay; type: biochemical
How it was run: (§1)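 Full-length GST-tagged human enzyme (1 nM) is exposed to test compound for 30 min before substrates are added. Phosphorylation of a primed biotinylated glycogen synthase peptide proceeds 100 min at room temperature at low ATP (4 μM α; 2 μM β) or high ATP (1 mM). Product is quantified by TR-FRET.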

[2] = target: GSK3b (GST-full length GSK3b) (Homo sapiens (Human), UniProt P49841); test: GSK3b TR-FRET kinase assay; type: biochemical
Chain of GSK3b (GST-full length GSK3b) (P49841 whole entry): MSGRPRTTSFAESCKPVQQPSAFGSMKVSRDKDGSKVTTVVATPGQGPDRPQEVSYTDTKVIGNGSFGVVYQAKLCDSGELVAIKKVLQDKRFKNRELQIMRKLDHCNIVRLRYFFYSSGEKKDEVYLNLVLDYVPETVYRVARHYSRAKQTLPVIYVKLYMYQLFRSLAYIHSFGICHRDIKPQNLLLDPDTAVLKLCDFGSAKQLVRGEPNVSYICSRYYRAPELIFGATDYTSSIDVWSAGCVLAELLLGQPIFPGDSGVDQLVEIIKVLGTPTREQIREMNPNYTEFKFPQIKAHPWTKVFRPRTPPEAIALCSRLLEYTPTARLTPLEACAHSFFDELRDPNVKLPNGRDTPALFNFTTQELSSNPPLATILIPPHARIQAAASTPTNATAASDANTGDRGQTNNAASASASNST
How it was run: as §1

[3] = 1 nM GSK3α, 4 μM ATP, 30 minute preincubation, geometric mean, read-out: GSK3-A TR-FRET BIOCHEMICAL (TR-FRET), GMean, IC50
[4] = 1 nM GSK3b, 2 μM ATP, 30 minute preincubation, geometric mean, read-out: GSK3-B TR-FRET BIOCHEMICAL (TR-FRET), GMean, IC50
[5] = read-out: GSK3-A (TR-FRET 1 mM ATP), GMean, IC50, 1 mM ATP, geometric mean
[6] = read-out: GSK3-B (TR-FRET 1 mM ATP), GMean, IC50, 1 mM ATP, geometric mean
[7] = 1 nM GSK3α, 4 μM ATP, 30 minute preincubation, read-out: GSK3-A TR-FRET BIOCHEMICAL (TR-FRET), IC50
[8] = 1 nM GSK3b, 2 μM ATP, 30 minute preincubation, read-out: GSK3-B TR-FRET BIOCHEMICAL (TR-FRET), IC50
[9] = 1 nM GSK3α, 4 μM ATP, 30 minute preincubation, Table 16, read-out: GSK3-A TR-FRET BIOCHEMICAL (TR-FRET)
[10] = 1 nM GSK3b, 2 μM ATP, 30 minute preincubation, Table 16, read-out: GSK3-B TR-FRET BIOCHEMICAL (TR-FRET)
[11] = GSK3-A (TR-FRET 1 mM ATP), GMean, IC50, 1 mM ATP, geometric mean
[12] = GSK3-B (TR-FRET 1 mM ATP), GMean, IC50, 1 mM ATP, geometric mean

Chain of GSK3α (GST-full length GSK3α) (P49840 whole entry): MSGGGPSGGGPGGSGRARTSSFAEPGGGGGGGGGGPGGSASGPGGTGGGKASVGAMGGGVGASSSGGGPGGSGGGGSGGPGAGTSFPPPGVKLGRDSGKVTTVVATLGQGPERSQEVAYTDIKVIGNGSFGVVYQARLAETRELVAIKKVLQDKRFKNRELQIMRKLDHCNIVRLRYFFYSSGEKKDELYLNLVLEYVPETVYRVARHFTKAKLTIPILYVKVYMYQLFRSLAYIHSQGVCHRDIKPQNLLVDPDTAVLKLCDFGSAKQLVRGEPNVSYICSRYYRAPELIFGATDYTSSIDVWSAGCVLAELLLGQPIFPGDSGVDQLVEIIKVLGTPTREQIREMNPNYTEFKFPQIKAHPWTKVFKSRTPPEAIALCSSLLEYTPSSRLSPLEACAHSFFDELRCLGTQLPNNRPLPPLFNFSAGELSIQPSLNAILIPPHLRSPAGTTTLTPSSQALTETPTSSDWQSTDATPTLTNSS

Structure (SMILES)	IC50 [1, 3] [nM]	IC50 [2, 4] [nM]	also measured
CCC1(c2cccc(-c3cn(C)nc3C)c2)C2=C(CC(C)(C)N(C)C2=O)Nc2n[nH]cc21 (stereo not shown) [Compound 948304]	≤ 100	≤ 100	–
CCC1(c2cccc(C(F)F)c2)C2=C(CC(C)(C)NC2=O)Nc2n[nH]c(C(F)(F)F)c21 (stereo not shown) [Compound 948305]	≤ 100	≤ 100	–
CC[C@]1(c2cccc(-c3ccnc(C)c3F)c2)C2=C(CC(C)(C)NC2=O)Nc2n[nH]cc21 [Compound 948306]	≤ 100	100 to 1000	–
CC[C@]1(c2cccc(-c3cn[nH]c3)c2)C2=C(CC(C)(C)NC2=O)Nc2n[nH]c(C(F)(F)F)c21 [Compound 948307]	≤ 100	≤ 100	IC50 [1, 5]: ≤ 100 nM; IC50 [2, 6]: ≤ 100 nM
CCC1(c2cccc(-c3ccnc4c3CCC4)c2)C2=C(CC(C)(C)NC2=O)Nc2n[nH]cc21 (stereo not shown) [Compound 948308]	> 5000	> 5000	–
CC[C@@]1(c2cccc(-c3cn[nH]c3)c2)C2=C(CC(C)(C)NC2=O)Nc2n[nH]c(C(F)(F)F)c21 [Compound 948312]	≤ 100	100 to 1000	–
CC[C@@]1(c2cccc(-c3ccnc4c3CCC4)c2)C2=C(CC(C)(C)NC2=O)Nc2n[nH]cc21 [Compound 948313]	≤ 100	≤ 100	IC50 [1, 5]: 100 to 1000 nM; IC50 [2, 6]: 1000 to 5000 nM
CCC1(c2cccc(-c3cn(C)nc3C)c2)C2=C(CC(C)(C)NC2=O)Nc2n[nH]c(C(F)(F)F)c21 (stereo not shown) [Compound 948314]	≤ 100	≤ 100	IC50 [1, 5]: ≤ 100 nM; IC50 [2, 6]: ≤ 100 nM
CC(=O)N1CC[C@]2(C1)C[C@]1(CO2)C2=C(CC(C)(C)CC2=O)Nc2n[nH]cc21 [Compound 948319]	–	–	IC50 [1, 7]: ≤ 100 nM; IC50 [2, 8]: 100 to 1000 nM
CC(=O)N1CC[C@@]2(C1)C[C@]1(CO2)C2=C(CC(C)(C)CC2=O)Nc2n[nH]cc21 [Compound 948320]	–	–	IC50 [1, 7]: 100 to 1000 nM; IC50 [2, 8]: 1000 to 5000 nM
CCc1cc(-c2cccc([C@]3(CC)C4=C(CC(C)(C)NC4=O)Nc4n[nH]cc43)c2)ccn1 [Compound 948360]	1000 to 5000	> 5000	–
CC[C@@]1(c2cccc(-c3ccnc4cc(Cl)ccc34)c2)C2=C(CC(C)(C)NC2=O)Nc2n[nH]cc21 [Compound 948362]	> 5000	> 5000	–
CCC1(c2cccc(-c3ccnn3C)c2)C2=C(CC3(CCCOC3)NC2=O)Nc2n[nH]cc21 (stereo not shown) [Compound 948366]	1000 to 5000	> 5000	–
CCC1(c2cccc(-c3ccncc3C)c2)C2=C(CC3(CCOCC3)NC2=O)Nc2n[nH]cc21 (stereo not shown) [Compound 948367]	100 to 1000	> 5000	–
CC[C@@]1(c2cccc(-c3ccnc(C)c3Cl)c2)C2=C(CC(C)(C)NC2=O)Nc2n[nH]cc21 [Compound 948369]	> 5000	> 5000	–
CC[C@]1(c2cccc(-c3c(F)cncc3Cl)c2)C2=C(CC(C)(C)NC2=O)Nc2n[nH]cc21 [Compound 948371]	≤ 100	≤ 100	IC50 [1, 5]: 100 to 1000 nM; IC50 [2, 6]: 100 to 1000 nM
CCC1(c2cccc(C(F)(F)F)c2)C2=C(CCN(c3cncnc3)C2=O)Nc2n[nH]cc21 (stereo not shown) [Compound 948379]	≤ 100	100 to 1000	IC50 [1, 5]: 100 to 1000 nM; IC50 [2, 6]: > 5000 nM
CCC1(c2cccc(C(F)(F)F)c2)C2=C(CCN(c3cncnc3)C2=O)Nc2n[nH]cc21 (stereo not shown) [Compound 948380]	100 to 1000	> 5000	–
CCC1(c2cccc(-c3ccnc(C)c3)c2)C2=C(CC(C)(C)NC2=O)Nc2n[nH]c(C)c21 (stereo not shown) [Compound 948414]	> 5000	> 5000	–
Cc1cc([C@H]2CC[C@@]3(CC2)C2=C(CC(C)(C)CC2=O)Nc2n[nH]cc23)ccn1 [Compound 948415]	–	–	IC50 [1, 9]: ≤ 100 nM; IC50 [2, 10]: ≤ 100 nM
Cc1cc([C@H]2CC[C@]3(CC2)C2=C(CC(C)(C)CC2=O)Nc2n[nH]cc23)ccn1 [Compound 948416]	–	–	IC50 [1, 9]: ≤ 100 nM; IC50 [2, 10]: 100 to 1000 nM
CC(=O)N1C[C@]2(C[C@]3(CO2)C2=C(CC(C)(C)CC2=O)Nc2n[nH]cc23)[C@H]1C [Compound 948437]	–	–	IC50 [1, 7]: ≤ 100 nM; IC50 [1, 11]: ≤ 100 nM; IC50 [2, 8]: ≤ 100 nM; IC50 [2, 12]: ≤ 100 nM
CC(=O)N1C[C@@]2(C[C@]3(CO2)C2=C(CC(C)(C)CC2=O)Nc2n[nH]cc23)[C@@H]1C [Compound 948438]	–	–	IC50 [1, 7]: ≤ 100 nM; IC50 [2, 8]: ≤ 100 nM
CC(=O)N1C[C@]2(C[C@@]3(CO2)C2=C(CC(C)(C)CC2=O)Nc2n[nH]cc23)[C@H]1C [Compound 948439]	–	–	IC50 [1, 7]: ≤ 100 nM; IC50 [1, 11]: ≤ 100 nM; IC50 [2, 8]: ≤ 100 nM; IC50 [2, 12]: ≤ 100 nM
CC(=O)N1C[C@@]2(C[C@@]3(CO2)C2=C(CC(C)(C)CC2=O)Nc2n[nH]cc23)[C@@H]1C [Compound 948440]	–	–	IC50 [1, 7]: ≤ 100 nM; IC50 [2, 8]: ≤ 100 nM
CCC1(c2cccc(-c3c(F)cncc3OC)c2)C2=C(Nc3n[nH]cc31)C(F)C(C)(C)CC2=O (stereo not shown) [Compound 948545, 4-ethyl-8-fluoro-4-(3-(3-fluoro-5-methoxypyridin-4-yl)phenyl)-7,7-dimethyl-2,4,6,7,8,9-hexahydro-SH-pyrazolo[3,4-b]quinolin-5-one]	–	–	IC50 [1, 9]: ≤ 100 nM; IC50 [1, 5]: ≤ 100 nM; IC50 [2, 10]: ≤ 100 nM; IC50 [2, 6]: 100 to 1000 nM

Further lines, with some results ahead:

IC50 [1, 3] [nM]	IC50 [2, 4] [nM]	Structure (SMILES)	also measured
≤ 100	≤ 100	CC[C@]1(c2cccc(S(=O)(=O)C(C)C)c2)C2=C(CC(C)(C)NC2=O)Nc2n[nH]c(C(F)(F)F)c21 [Compound 948419]	IC50 [1, 5]: ≤ 100 nM; IC50 [2, 6]: ≤ 100 nM
100 to 1000	100 to 1000	CC[C@@]1(c2cccc(S(C)(=O)=O)c2)C2=C(CC(C)(C)NC2=O)Nc2n[nH]c(C(F)(F)F)c21 [Compound 948422]	–
≤ 100	100 to 1000	CC[C@@]1(c2cccc(S(=O)(=O)C(C)C)c2)C2=C(CC(C)(C)NC2=O)Nc2n[nH]c(C(F)(F)F)c21 [Compound 948423]	–
> 5000	> 5000	CCC1(c2cccc(-c3ccnc(C)c3)c2)C2=C(CC(C)(COC)NC2=O)Nc2n[nH]cc21 (stereo not shown) [Compound 948493]	–
≤ 100	≤ 100	CC[C@]1(c2cccc(-c3ccncc3C)c2)C2=C(CC3(CCC3)NC2=O)Nc2n[nH]cc21 [Compound 948512]	IC50 [1, 5]: 100 to 1000 nM; IC50 [2, 6]: 1000 to 5000 nM
≤ 100	100 to 1000	CC[C@]1(c2cccc(-c3ccnc(C)c3)c2)C2=C(CC3(CCOCC3)NC2=O)Nc2n[nH]c(C)c21 [Compound 948513]	–
1000 to 5000	> 5000	CCC1(c2cccc(-c3c(F)cncc3F)c2)C2=C(CC(C)(C)NC2=O)Nc2n[nH]cc21 (stereo not shown) [Compound 948514]	–
≤ 100	≤ 100	CCC1(c2cccc(-c3c(Cl)cncc3Cl)c2)C2=C(CC(C)(C)NC2=O)Nc2n[nH]cc21 (stereo not shown) [Compound 948515]	IC50 [1, 5]: ≤ 100 nM; IC50 [2, 6]: 100 to 1000 nM
≤ 100	100 to 1000	CCC1(c2cccc(-c3ccnn3C)c2)C2=C(CC3(CCOCC3)NC2=O)Nc2n[nH]cc21 (stereo not shown) [Compound 948516]	–
≤ 100	≤ 100	CC[C@]1(c2cccc(-c3ccnc4ccc(Cl)cc34)c2)C2=C(CC(C)(C)N(C)C2=O)Nc2n[nH]cc21 [Compound 948517]	–
> 5000	> 5000	CC[C@@]1(c2cccc(-c3ccnc4ccc(OC)cc34)c2)C2=C(CC(C)(C)NC2=O)Nc2n[nH]cc21 [Compound 948518]	–
> 5000	> 5000	CC[C@@]1(c2cccc(-c3ccnc4cc(F)ccc34)c2)C2=C(CC(C)(C)NC2=O)Nc2n[nH]cc21 [Compound 948519]	–
100 to 1000	1000 to 5000	CCC1(c2cccc(-c3ccnc(OC)c3F)c2)C2=C(CC(C)(C)NC2=O)Nc2n[nH]cc21 (stereo not shown) [Compound 948520]	–
≤ 100	1000 to 5000	CCC1(c2cccc(-c3ccnc(C)c3)c2)C2=C(CC(C)(COC)NC2=O)Nc2n[nH]cc21 (stereo not shown) [Compound 948521]	–
100 to 1000	> 5000	CCC1(c2cccc(-c3ccnn3C)c2)C2=C(CC3(CCC3)NC2=O)Nc2n[nH]cc21 (stereo not shown) [Compound 948522]	–
≤ 100	100 to 1000	CCC1(c2cccc(-c3ccncc3C)c2)C2=C(CC3(CCC3)NC2=O)Nc2n[nH]cc21 (stereo not shown) [Compound 948523]	–
1000 to 5000	> 5000	CCC1(c2cccc(-c3ccnc(C)c3)c2)C2=C(CC3(CCOCC3)NC2=O)Nc2n[nH]cc21 (stereo not shown) [Compound 948524]	–
1000 to 5000	> 5000	CC[C@]1(c2cccc(-c3ccnn3C)c2)C2=C(CC3(CCOCC3)NC2=O)Nc2n[nH]cc21 [Compound 948526]	–
≤ 100	100 to 1000	CC[C@]1(c2cccc(-c3ccnc4cc(F)ccc34)c2)C2=C(CC(C)(C)NC2=O)Nc2n[nH]cc21 [Compound 948528]	–
